Reference: patent US7605184B2, “Method of anesthesia” (priority 2008, dated 2009)
Read-outs that look alike come from different tables or passages of the source.

Legend:
murine models = conditions: cited from earlier work
mice and rats = test: recovery, CNS irritation and survival after anesthesia in mice and rats; type: in vivo
mice = test: loss of righting reflex in mice; type: in vivo; conditions: four mice, closed system with Amsorb, rectal temperature 30° C. (hypothermic)
Source text: (§1) Clearly another significant property of an anesthetic is its ability to effect anesthesia in the first place. […] The minimum alveolar concentration of anesthetic at which 50% of subjects move in response to a noxious stimulus is designated “MAC.” In the case of 30-60 year old adult humans, the MAC values are 0.06 atm (i.e., 6%) for desflurane, 0.0115 atm (1.15%) for isoflurane and 0.0185 atm (1.85%) for sevoflurane). An alternative measurement similar to MAC that is based on the righting reflex in mice gave a value for the compound of formula (1) of 0.05 atm (5%). The value obtained in this alternative assay approximates but is usually a bit less than MAC.
In a closed system employing Amsorb® as the absorbent, four mice were anesthetized using the compound of formula (1). The righting reflex was lost at 3.22±0.54% of formula (1). The rectal temperature of the mice at the end of this experiment was 30° C. which is hypothermic for mice. Hypothermia decreases anesthetic requirement (Eger, E. I. II and Johnson, B. H.; Anesth Analg (1987) 66:974-976), and thus this experiment probably underestimated the concentration producing the loss of righting reflex.

[1] = degradation by desiccated (dry) carbon dioxide absorbents at 40° C.; type: physicochemical; conditions: for % Degr Per min: 40° C.
Experimental: Drying was accomplished by placing wet absorbent in a large flask receiving 1-1.5 L/min of oxygen (dry; no water vapor) for 4 days. The flask rested in an incubator at 50° C. The absorbent contained in the flask was weighed repeatedly (to essentially constant weight loss).
As above, all studies were conducted at 40° C. Desiccated (dry) absorbent (grams indicated) was placed in a 600 mL flask, and 100 or 200 mL of anesthetic at the indicated concentration was inserted. […] Values for % degraded per minute are given as the average and standard deviation (SD).

[2] = degradation by wet (normal) carbon dioxide absorbents at 40° C., gas chromatography; type: physicochemical; conditions: for % Degraded per Minute: 100 mL anesthetic
Experimental: Nine milligrams of the compound of formula (1) were placed in each of three 600 ml flasks containing 100 g of soda lime and maintained at 40° C. The 40° C. temperature is chosen to mimic that generated by the exothermic reaction of carbon dioxide with absorbent in a system wherein all gases are rebreathed. Soda lime contains sodium hydroxide as well as approximately 80% calcium hydroxide. A control flask contained the compound of formula (1) but no soda lime. Samples were taken at various timepoints and analyzed by gas chromatography using a flame ionization detector. […] It will be noted that the Y-axis is on a log scale so that the depletion is quite dramatic.
The procedure was identical to that of Example 1 except that an absorbent containing only calcium hydroxide as the base was used. This absorbent is marketed under the trademark Amsorb®.
The dramatic decrease in degradation with substitution of Amsorb® for soda lime applies to other absorbents that are composed of calcium hydroxide but contain minimal or no monovalent bases, LoFloSorb® and Drägersorb® Free. The general procedure of Example 1 was repeated using these two commercially available absorbents. […] All studies were conducted at 40° C. In all cases, the absorbents were “wet” (contained approximately 15% water by weight). The data in the table were obtained using the protocol set forth above wherein 100 g of absorbent was placed in a 600 mL flask, and 100 mL of anesthetic at the indicated concentration was inserted. Each study was done in triplicate. […] Values for % degraded per minute are given as the average and standard deviation (SD).

rats = test: MAC in rats; type: in vivo; conditions: five rats, 37° C. (normothermic)
Source text: as §1
In an additional experiment, conducted at 37° C. which is normothermic, five rats were anesthetized using the compound of formula (1) and the MAC value found was 8.34±0.84%.

[3] = blood/gas partition coefficient; type: physicochemical
Source text: One highly desirable property of an inhaled anesthetic is that it permits rapid recovery once the administration of the anesthetic is halted. Typically, during surgical procedures, the subject is continuously administered the anesthetic, and it is helpful if the subject can recover as quickly as possible as soon as administration is stopped. The length of time required for such recovery is a function of the solubility of the anesthetic in the blood, which mimics solubility in the brain. Thus, anesthetics with very low blood/gas partition coefficients are highly desirable. The blood/gas partition coefficient for desflurane is 0.45; for sevoflurane is 0.65 and for isoflurane is even higher. The blood/gas partition coefficient for the compound of formula (1) is only 0.21, making it highly advantageous as permitting more rapid recovery than any of the currently used anesthetics.

[4] = Strum et al. 1987; cited from earlier work
[5] = currently used anesthetics; cited from earlier work
[6] = dry Amsorb 100 g, 100 mL injected
[7] = dry Drägersorb Free 25 g, 100 mL injected
[8] = dry LoFloSorb 25 g, 100 mL injected
[9] = dry LoFloSorb 50 g, 200 mL injected

In the case of `FC(F)OC(C(F)(F)F)C(F)(F)F` [Formula (1), CHF2—O—CH(CF3)2], the anesthetic quality (murine models; Speers et al., J. Med. Chem. 1971) is listed as “good anesthetic”, the side effects (murine models; murine models, Speers et al. 1971) is listed as “undesirable side effects” and the survival (mice and rats; 24 hours after anesthesia, mice and rats) is listed as “All survived for 24 hours in apparent good health”. The “time to awake after administration of the anesthetic was stopped” value (mice and rats; mice and rats) was 2 to 3 min, the “irritation of the central nervous system” value (mice and rats; mice and rats anesthetized) was “In neither of these cases was there irritation of the central nervous system” and the “concentration at which the righting reflex was lost” value (mice) was 3.22±0.54%. The “% Degr Per min” value ([1]; dry Amsorb 20 g, 100 mL injected) was 0.7%, the “% Degr Per min” value [1, 6] was 2.7% and the “rate of degradation on repeated addition of anesthetic (FIG. 4)” value ([1]; dry Amsorb, three flasks, repeated additions) was “progressively decreased”. For the same molecule, the “% Degr Per min” value [1, 7] was 0.28%, the “% Degr Per min” value [1, 8] was 55.0% and the “% Degr Per min” value [1, 9] was 40.7%. For the same molecule, the “degradation in flasks containing soda lime (FIG. 2)” value ([2]; 9 mg, 100 g soda lime, 600 ml flask, after 30 min) was “essentially complete degradation”, the “percentage of compound in the flask (FIG. 3)” value ([2]; 100 g Amsorb (calcium hydroxide only), 30 min interval) was “remained constant” and the “% Degraded per Minute” value ([2]; wet Amsorb 100 g) was −0.05%. For the same molecule, the “% Degraded per Minute” value ([2]; wet Drägersorb Free 100 g) was 0.102%, the “% Degraded per Minute” value ([2]; wet LoFloSorb 100 g) was 0.2% and the “% Degraded per Minute” value ([2]; wet Soda Lime 100 g) was 25.0%. For the same molecule, the MAC value (rats) was 8.34±0.84% and the blood/gas partition coefficient [3] was 0.21.
For `FCOC(C(F)(F)F)C(F)(F)F` [Sevoflurane, sevoflurane, reference compound], the “% Degr Per min” value [1, 6] was 5.01%, the “% Degr Per min” value [1, 7] was 0.52% and the “% Degr Per min” value [1, 8] was 38.5%. The “degradation in soda lime” value [4] was 13 % per hour, the “% Degraded per Minute” value ([2]; wet Drägersorb Free 100 g) was −0.058% and the blood/gas partition coefficient [5] was 0.65.
In the case of `FC(F)OC(F)C(F)(F)F` (centres unmarked) [Desflurane, desflurane, reference compound], the “% Degr Per min” value ([1]; dry Amsorb 50 g, 100 mL injected) is listed as −0.1%, the “% Degr Per min” value [1, 9] is listed as 0.5% and the blood/gas partition coefficient [5] is listed as 0.45.
